Columns and labels:
[1] = log P by HPLC on reversed phase columns (EEC directive 79/831 Annex V.A8); assay type: physicochemical; conditions: pH 2.7, 0.1% formic acid in water / acetonitrile gradient
Protocol: Measurement of log P values was performed according EEC directive 79/831 Annex V.A8 by HPLC (High Performance Liquid Chromatography) on reversed phase columns with the following method:
measurement of LC-MS was done at pH 2.7 with 0.1% formic acid in water and with acetonitrile (contains 0.1% formic acid) as eluent with a linear gradient from 10% acetonitrle to 95% acetonitrile.
Calibration was done with not branched alkan2-ones (with 3 to 16 carbon atoms) with known log P-values (measurement of log P values using retention times with linear interpolation between successive alkanones). lambda-maX-values were determined using UV-spectra from 200 nm to 400 nm and the peak values of the chromatographic signals.

[2] = tested on: Phytophthora infestans; assay type: in vivo; conditions: tomato, preventive spray, 100 ppm of active ingredient, evaluated 7 days after inoculation
[3] = tested on: Plasmopara viticola; assay: Plasmopara test (grapevines) / preventive; assay type: in vivo; conditions: preventive spray, 10 ppm of active ingredient, evaluated 6 days after inoculation
Protocol: Plasmopara Test (Grapevines)/Preventive
To produce a suitable preparation of active compound, 1 part by weight of active compound is mixed with the stated amounts of solvent and emulsifier, and the concentrate is diluted with water to the desired concentration.
To test for preventive activity, young plants are sprayed with the preparation of active compound at the stated rate of application. After the spray coating has dried on, the plants are inoculated with an aqueous spore suspension of Plasmopara viticola and then remain for 1 day in an incubation cabinet at approximately 20° C. and a relative atmospheric humidity of 100%. The plant is subsequently placed for 4 days in a greenhouse at approximately 21° C. and a relative atmospheric humidity of approximately 90%. The plants are then misted and placed for 1 day in an incubation cabinet.
The test is evaluated 6 days after the inoculation. 0% means an efficacy which corresponds to that of the untreated control, while an efficacy of 100% means that no disease is observed.

| Compound | logp [1] | Efficacy % [2] [%] | Efficacy % [3] [%] |
| --- | --- | --- | --- |
| Cc1nnnn1C(=NOCc1cccc(NC(=O)C2COc3ccccc3O2)n1)c1ccccc1 (centres unmarked) [Example 28] | 3.78 | 98 | – |
| Cc1nnnn1C(=NOCc1csc(NC(=O)C2CCc3cc(F)ccc3O2)n1)c1ccccc1 (centres unmarked) [Example 31] | 3.87 | 95 | – |
| Cc1cccc2c1OC(C(=O)Nc1cccc(CON=C(c3ccccc3)n3nnnc3C)n1)CO2 (centres unmarked) [Example 27] | 4.15 | 95 | – |
| Cc1nnnn1C(=NOCc1cccc(NC(=O)C2CC(=O)c3cc(F)ccc3O2)n1)c1ccccc1 (centres unmarked) [Example 29] | 3.53 | 90 | – |
| Cn1nnnc1C(=NOCc1cccc(NC(=O)C2COc3ccccc32)n1)c1ccccc1 (centres unmarked) [Example 61] | 3.37 | – | – |
| Cc1nnnn1C(=NOCc1cccc(NC(=O)C2COc3ccccc32)n1)c1ccccc1 (centres unmarked) [Example 58] | 3.39 | – | – |
| COc1cccc2c1OC(C(=O)Nc1nc(CON=C(c3ccccc3)n3nnnc3C)cs1)CC2 (centres unmarked) [Example 30] | 3.69 | 95 | – |
| COc1ccc2c(c1)OC(C(=O)Nc1nc(CON=C(c3ccccc3)c3nnnn3C)cs1)CC2 (centres unmarked) [Example 40] | 3.78 | 98 | 96 |
| Cc1nnnn1C(=NOCc1csc(NC(=O)C2CCc3cc(I)ccc3O2)n1)c1ccccc1 (centres unmarked) [Example 38] | 4.49 | 95 | – |
| COc1ccc2c(c1)OC(C(=O)Nc1cccc(CON=C(c3ccccc3)c3nnnn3C)n1)CC2 (centres unmarked) [Example 39] | 3.96 | 95 | – |
| Cn1nnnc1C(=NOCc1cccc(NC(=O)C2COc3ccc(C(C)(C)C)cc3O2)n1)c1ccccc1 (centres unmarked) [Example 6] | 4.92 | 93 | – |
| COc1cccc2c1OC(C(=O)Nc1cccc(CON=C(c3ccccc3)c3nnnn3C)n1)CC2 (centres unmarked) [Example 3] | 3.92 | 95 | – |
| Cc1nnnn1C(=NOCc1cccc(NC(=O)C2COc3ccc(C(C)(C)C)cc3O2)n1)c1ccccc1 (centres unmarked) [Example 25] | 5.03 | 93 | – |
| Cc1nnnn1C(=NOCc1csc(NC(=O)C2COc3ccccc3O2)n1)c1ccccc1 (centres unmarked) [Example 36] | 3.51 | 95 | – |
| COc1cccc2c1OC(C(=O)Nc1nc(CON=C(c3ccccc3)c3nnnn3C)cs1)CC2 (centres unmarked) [Example 18] | 3.64 | 95 | – |
| Cn1nnnc1C(=NOCc1cccc(NC(=O)C2CCc3ccccc3O2)n1)c1ccccc1 (centres unmarked) [Example 5] | 4.01 | 95 | 89 |
| Cn1nnnc1C(=NOCc1cccc(NC(=O)C2CCc3cc(I)ccc3O2)n1)c1ccccc1 (centres unmarked) [Example 2] | 4.7 | 95 | – |
| Cc1nnnn1C(=NOCc1cccc(NC(=O)C2CCc3ccccc3O2)n1)c1ccccc1 (centres unmarked) [Example 24] | 4.08 | 93 | – |
| Cc1nnnn1C(=NOCc1csc(NC(=O)C2Oc3ccccc3O2)n1)c1ccccc1 [Example 46] | 3.31 | 75 | – |
| Cn1nnnc1C(=NOCc1csc(NC(=O)C2COc3ccccc3O2)n1)c1ccccc1 (centres unmarked) [Example 14] | 3.46 | 90 | – |
| Cc1cccc2c1OC(C(=O)Nc1nc(CON=C(c3ccccc3)c3nnnn3C)cs1)CO2 (centres unmarked) [Example 13] | 3.83 | 98 | – |
| Cn1nnnc1C(=NOCc1cccc(NC(=O)c2cc(=O)c3ccccc3o2)n1)c1ccccc1 [Example 59] | 3.27 | 95 | – |
| Cc1ccc2c(c1)OC(C(=O)Nc1cccc(CON=C(c3ccccc3)n3nnnc3C)n1)CO2 (centres unmarked) [Example 26] | 4.11 | 95 | – |
| Cn1nnnc1C(=NOCc1csc(NC(=O)C2CCc3cc(I)ccc3O2)n1)c1ccccc1 (centres unmarked) [Example 17] | 4.44 | 93 | – |
| Cn1nnnc1C(=NOCc1cccc(NC(=O)C2Oc3ccccc3O2)n1)c1ccccc1 [Example 60] | 3.44 | 95 | 97 |
| Cn1nnnc1C(=NOCc1csc(NC(=O)C2CCc3ccccc3O2)n1)c1ccccc1 (centres unmarked) [Example 20] | 3.78 | 93 | – |

| Compound | logp [1] | Efficacy % [2] [%] | Efficacy % [3] [%] |
| --- | --- | --- | --- |
| Cn1nnnc1C(=NOCc1csc(NC(=O)C2COc3ccccc32)n1)c1ccccc1 (centres unmarked) [Example 49] | 3.19 | – | – |
| Cn1nnnc1C(=NOCc1csc(NC(=O)C2Oc3ccccc3O2)n1)c1ccccc1 [Example 48] | 3.29 | 80 | – |
| Cc1ccc2c(c1)OC(C(=O)Nc1nc(CON=C(c3ccccc3)n3nnnc3C)cs1)CO2 (centres unmarked) [Example 34] | 3.83 | 95 | – |
| Cn1nnnc1C(=NOCc1cccc(NC(=O)C2COc3ccccc3O2)n1)c1ccccc1 (centres unmarked) [Example 9] | 3.69 | 85 | 97 |
| Cc1nnnn1C(=NOCc1csc(NC(=O)C2CC(=O)c3cc(F)ccc3O2)n1)c1ccccc1 (centres unmarked) [Example 37] | 3.33 | 95 | – |
| Cc1ccc2c(c1)OC(C(=O)Nc1cccc(CON=C(c3ccccc3)c3nnnn3C)n1)CO2 (centres unmarked) [Example 7] | 4.03 | 95 | 75 |
| Cc1nnnn1C(=NOCc1cccc(NC(=O)C2CCc3cc(F)ccc3O2)n1)c1ccccc1 (centres unmarked) [Example 23] | 4.11 | 90 | – |
| Cc1nnnn1C(=NOCc1cccc(NC(=O)c2cc(=O)c3ccccc3o2)n1)c1ccccc1 [Example 43] | 3.33 | 85 | – |
| Cc1cccc2c1OC(C(=O)Nc1nc(CON=C(c3ccccc3)n3nnnc3C)cs1)CO2 (centres unmarked) [Example 35] | 3.87 | 95 | – |
| Cn1nnnc1C(=NOCc1csc(NC(=O)c2cc(=O)c3ccccc3o2)n1)c1ccccc1 [Example 47] | 3.17 | 70 | – |
| Cc1ccc2c(c1)OC(C(=O)Nc1nc(CON=C(c3ccccc3)c3nnnn3C)cs1)CO2 (centres unmarked) [Example 12] | 3.78 | 95 | – |
| COc1cccc2c1OC(C(=O)Nc1cccc(CON=C(c3ccccc3)n3nnnc3C)n1)CC2 (centres unmarked) [Example 22] | 3.99 | 80 | – |
| Cc1nnnn1C(=NOCc1csc(NC(=O)C2COc3ccc(C(C)(C)C)cc3O2)n1)c1ccccc1 (centres unmarked) [Example 33] | 4.67 | 90 | – |
| Cn1nnnc1C(=NOCc1csc(NC(=O)C2CC(=O)c3cc(F)ccc3O2)n1)c1ccccc1 (centres unmarked) [Example 16] | 3.29 | 93 | – |
| Cc1nnnn1C(=NOCc1csc(NC(=O)c2cc(=O)c3ccccc3o2)n1)c1ccccc1 [Example 44] | 3.21 | 95 | – |
| Cc1nnnn1C(=NOCc1cccc(NC(=O)C2Oc3ccccc3O2)n1)c1ccccc1 [Example 57] | 3.48 | 88 | – |
| Cn1nnnc1C(=NOCc1cccc(NC(=O)C2CC(=O)c3cc(F)ccc3O2)n1)c1ccccc1 (centres unmarked) [Example 1] | 3.46 | 93 | – |
| Cc1nnnn1C(=NOCc1csc(NC(=O)C2CCc3ccccc3O2)n1)c1ccccc1 (centres unmarked) [Example 32] | 3.83 | 95 | – |
| Cn1nnnc1C(=NOCc1csc(NC(=O)C2CCc3cc(F)ccc3O2)n1)c1ccccc1 (centres unmarked) [Example 19] | 3.8 | 95 | – |
| Cn1nnnc1C(=NOCc1csc(NC(=O)C2COc3ccc(C(C)(C)C)cc3O2)n1)c1ccccc1 (centres unmarked) [Example 15] | 4.62 | 90 | – |
| Cc1cccc2c1OC(C(=O)Nc1cccc(CON=C(c3ccccc3)c3nnnn3C)n1)CO2 (centres unmarked) [Example 8] | 4.08 | 95 | 87 |
| Cc1nnnn1C(=NOCc1cccc(NC(=O)C2CCc3cc(I)ccc3O2)n1)c1ccccc1 (centres unmarked) [Example 21] | 4.81 | 80 | – |
| Cn1nnnc1C(=NOCc1cccc(NC(=O)C2CCc3cc(F)ccc3O2)n1)c1ccccc1 (centres unmarked) [Example 4] | 4.01 | 95 | – |
| Cn1nnnc1C(=NOCc1csc(NC(=O)C2Cc3ccccc3O2)n1)c1ccccc1 (centres unmarked) [Example 42] | 3.39 | 89 | 100 |
| Cc1nnnn1C(=NOCc1cccc(NC(=O)C2Cc3ccccc3O2)n1)c1ccccc1 (centres unmarked) [Example 56] | 3.71 | 100 | 85 |
| Cc1nnnn1C(=NOCc1csc(NC(=O)C2Cc3ccccc3O2)n1)c1ccccc1 (centres unmarked) [Example 45] | 3.44 | 98 | 96 |
